Legend:
IL-5 = IL-5 production by PHA/PMA-stimulated mononuclear cells, ELISA (Example 7); assay type: cell-based; settings: human mononuclear cells, PHA + PMA, 48 h
Protocol: (§1) 200 ml of blood are taken and heparinised from healthy male and female volunteers. Mononuclear cells are isolated by Ficoll-Hypaque centrifugation and resuspended in a medium consisting of RPMI 1640 complemented by 5% autologous serum, […] of glutamine, […] of penicillin, 10 μg/ml of streptomycin, 10 μg/ml of phytohaemagglutinin (PHA), 10 μg/ml of phorbol myristate acetate (PMA) and test compounds as stated per individual experiment at a cellular density of 2,000,000 per ml. The cells are distributed in 96 well microtitre plates in 250 μl portions per well and incubated for 48 hours at 37° C. The supernatants are then harvested and the IL-2 and IL-5 concentrations quantified by a standard ELISA assay using a biotin/streptavidin system. By way of variant, PHA was replaced with 0.1 μg/ml of monoclonal antibodies directed against human CD3 in order to achieve more specific activation of the T cells.

IL-2 = IL-2 production by PHA/PMA-stimulated mononuclear cells, ELISA (Example 7); assay type: cell-based; settings: human mononuclear cells, PHA + PMA, 48 h
Protocol: as §1

tumour necrosis factor = settings: dose of 1 mmol; endotoxin-induced activation of alveolar macrophages; cited from earlier work
[1] = medium not stated; cited from earlier work

| SMILES | IL-5 inhibition (%) (IL-5; 10 μM) | IL-5 inhibition (%) (IL-5; 32 μM) | IL-2 inhibition (%) (IL-2; 10 μM) | IL-2 inhibition (%) (IL-2; 32 μM) | production of tumour necrosis factor (tumour necrosis factor) | half-life [1] | inhibition at 10 µM (IL-5; 10 μM) | inhibition at 32 µM (IL-5; 32 μM) | inhibition at 10 µM (IL-2; 10 μM) | inhibition at 32 µM (IL-2; 32 μM) |
| --- | --- | --- | --- | --- | --- | --- | --- | --- | --- | --- |
| O=C(N=NC(=O)N1CCOCC1)N1CCOCC1 [C, 1,1′-(azodicarbonyl)dimorpholine] | 37% | 51% | 6% | 9% |  |  |  |  |  |  |
| CN(C)C(=O)N=NC(=O)N(C)C [A, 1,1′-azobisdimethylformamide] | 12% | 29% | 3% | 28% | insignificant increase | only a few minutes |  |  |  |  |
| O=C(N=NC(=O)N1CCCCC1)N1CCCCC1 [B, 1,1′-(azodicarbonyl)dipiperidine] |  |  |  |  |  |  | 17% | 39% | 0.2% | 11% |
